Test systems include MALME-3M melanoma; SK-MEL-5 melanoma; UO-31 renal; U251 CNS; COLO 205 colon; IGROV1 ovarian; LOX IMVI melanoma; SK-MEL-2 melanoma; SK-OV-3 ovarian; UACC-257 melanoma.
What all share (assay): NCI tumour cell line growth inhibition, 48 h

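Following 48 hours of exposure in 96-well plates, responses at five concentrations were used to interpolate endpoints linearly. GI50 = concentration required for 50% inhibition of growth. TGI marks complete inhibition of growth.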

Turning to `COc1cc(N)c(Cl)cc1C(=O)N[C@@H]1CCN(CCCOc2ccc(F)cc2)C[C@@H]1OC`, the GI50 was greater than 100 µM in the experiment on MALME-3M melanoma; 17.8 µM in the experiment on SK-MEL-5 melanoma; 27.9 µM in the experiment with UO-31 renal; greater than 100 µM in the experiment on U251 CNS; 54.8 µM in the experiment with COLO 205 colon; greater than 100 µM with IGROV1 ovarian. The figures for the GI50 with LOX IMVI melanoma, with SK-MEL-2 melanoma and in the experiment on SK-OV-3 ovarian were 27 µM, greater than 100 µM and greater than 100 µM, respectively. Besides, the TGI with MALME-3M melanoma, with SK-MEL-5 melanoma, in the experiment on UO-31 renal, in the experiment with U251 CNS, with COLO 205 colon and in the experiment with IGROV1 ovarian was greater than 100 µM in each case. The TGI in the experiment on LOX IMVI melanoma, with SK-MEL-2 melanoma and in the experiment on SK-OV-3 ovarian was greater than 100 µM in each case.

On to `NCCOCCOCC(=O)O`, for which the TGI in the experiment with MALME-3M melanoma, in the experiment on SK-MEL-5 melanoma, in the experiment with UO-31 renal, in the experiment with U251 CNS, with IGROV1 ovarian and with UACC-257 melanoma was greater than 100 µM in each case. Moreover, the TGI with SK-MEL-2 melanoma and in the experiment on SK-OV-3 ovarian was greater than 100 µM in each case.

Turning to `BrCc1ccc2ccc3ccc(CBr)nc3c2n1`, the TGI in the experiment with SK-MEL-5 melanoma was determined as 8.16 µM; in the experiment with UO-31 renal it was 4.57 µM; with U251 CNS it was 19 µM; with COLO 205 colon, 4.3 µM; with IGROV1 ovarian it was 10.8 µM; in the experiment on UACC-257 melanoma, 14.1 µM. Further, the results for the TGI with LOX IMVI melanoma and in the experiment with SK-MEL-2 melanoma were 3.21 µM and 15 µM, respectively.

Take `O=C1c2ccccc2-c2c1c1ccccc1c(=O)n2CCNCCNCCNCCNCCn1c2c(c3ccccc3c1=O)C(=O)c1ccccc1-2`: the GI50 was 0.323 µM in the experiment with SK-MEL-5 melanoma; 0.661 µM in the experiment on UO-31 renal; greater than 100 µM in the experiment with U251 CNS; 0.597 µM in the experiment on COLO 205 colon; 0.716 µM with UACC-257 melanoma; 0.0182 µM in the experiment on LOX IMVI melanoma. Further, in the experiment on SK-MEL-2 melanoma, the GI50 is 0.692 µM. Besides, the TGI with SK-MEL-5 melanoma is 1.47 µM; with UO-31 renal it was 2.09 µM; with U251 CNS, greater than 100 µM; in the experiment with COLO 205 colon, 3.94 µM; with UACC-257 melanoma it was 5.73 µM; in the experiment with LOX IMVI melanoma, 0.0703 µM. In the experiment on SK-MEL-2 melanoma, this compound registered a TGI of 2.4 µM.

As for `COc1cc(C2CC(c3ccc(Cl)cc3)=NN2C(C)=O)ccc1Oc1ccnc2cc(Cl)ccc12` (configuration not stated), the GI50 was greater than 100 µM with MALME-3M melanoma; greater than 100 µM in the experiment with SK-MEL-5 melanoma; 3.09 µM in the experiment with U251 CNS; greater than 100 µM in the experiment with IGROV1 ovarian; greater than 100 µM in the experiment on UACC-257 melanoma; 15.9 µM with SK-MEL-2 melanoma. Also, the TGI in the experiment with MALME-3M melanoma is greater than 100 µM; with SK-MEL-5 melanoma, greater than 100 µM; in the experiment on U251 CNS it was greater than 100 µM; with IGROV1 ovarian it was greater than 100 µM; with UACC-257 melanoma, greater than 100 µM; with SK-MEL-2 melanoma, 82.8 µM.

For the compound `COc1c2c(c(O)c3c4c(c(C)cc13)C1OC3(C(OC)OC5CC(C)(O)C(OC6CC(C)(O)C(O)C(C)O6)C(C)O5)OC1C(OC)(O4)C31CO1)C(=O)C(O)CC2OC1CC(C)(O)C(OC(C)=O)C(C)O1` (configuration not stated), the TGI was less than 0.01 µM in the experiment with MALME-3M melanoma; less than 0.01 µM in the experiment with SK-MEL-5 melanoma; 0.154 µM with UO-31 renal; less than 0.0108 µM with U251 CNS; 0.957 µM with IGROV1 ovarian; less than 0.01 µM in the experiment with UACC-257 melanoma. For the same compound, the figures for the TGI in the experiment on SK-MEL-2 melanoma and in the experiment with SK-OV-3 ovarian were less than 0.01 µM and 0.714 µM, respectively.

Take `O=C(Cc1nc2ccccc2s1)C(=O)Nc1cccc(C(F)(F)F)c1`: the TGI in the experiment on MALME-3M melanoma, in the experiment on SK-MEL-5 melanoma, in the experiment with UO-31 renal, with U251 CNS, in the experiment on COLO 205 colon and with IGROV1 ovarian was greater than 100 µM in each case. Also, the TGI in the experiment on UACC-257 melanoma, with SK-MEL-2 melanoma and in the experiment with SK-OV-3 ovarian was greater than 100 µM throughout.

For the compound `C[C@]12CCC3c4ccc(O)cc4CCC3C1CC[C@@H]2NC(=O)/C=C/c1ccc(O)c(O)c1` (some centres not stated), the GI50 with MALME-3M melanoma was 25.1 µM; with SK-MEL-5 melanoma, 10.5 µM; in the experiment on UO-31 renal it was 11.9 µM; in the experiment on U251 CNS, 6.63 µM; in the experiment with COLO 205 colon, 13.1 µM; in the experiment with IGROV1 ovarian it was 12.1 µM. The results for the GI50 in the experiment on LOX IMVI melanoma, in the experiment with SK-MEL-2 melanoma and in the experiment with SK-OV-3 ovarian were 3.86 µM, 20.6 µM and 14.8 µM, respectively. Also, the TGI worked out at 70.9 µM in the experiment with MALME-3M melanoma; 25.2 µM in the experiment on SK-MEL-5 melanoma; 47 µM in the experiment with UO-31 renal; 21.1 µM in the experiment with U251 CNS; 32.9 µM in the experiment on COLO 205 colon; 32.2 µM in the experiment with IGROV1 ovarian. Further, the TGI was determined as 17.8 µM with LOX IMVI melanoma, 51.3 µM in the experiment on SK-MEL-2 melanoma and 31.6 µM with SK-OV-3 ovarian.

On to `C[C@]12CC[C@H](OC(=O)Nc3ccccc3)CC1=CC[C@@H]1C2CC[C@]2(C)/C(=N/OC(=O)Nc3ccccc3)CCC12` (some centres not stated), for which the TGI in the experiment on SK-MEL-5 melanoma is greater than 100 µM; with UO-31 renal it was 7.91 µM; in the experiment on U251 CNS it was greater than 100 µM; with COLO 205 colon it was greater than 100 µM; in the experiment on IGROV1 ovarian it was greater than 100 µM; with LOX IMVI melanoma, greater than 100 µM. Moreover, the TGI in the experiment with SK-MEL-2 melanoma and in the experiment with SK-OV-3 ovarian was greater than 100 µM each time.

Consider `C/C(=C\c1ccccc1)C(=O)c1c(C)cc(C)cc1C`, for which the TGI with MALME-3M melanoma, with SK-MEL-5 melanoma, in the experiment with UO-31 renal, in the experiment on U251 CNS, in the experiment on COLO 205 colon and in the experiment on IGROV1 ovarian was greater than 100 µM throughout. Also, the TGI with UACC-257 melanoma, in the experiment with SK-MEL-2 melanoma and with SK-OV-3 ovarian was greater than 100 µM each time.

Turning to `C[C@@H]1CC2(C[C@@H](C)C3[C@@H](CC4(C)CCCC5C6=CC(O)(CC[C@]34C)OC6=CC(=O)OC5(C)C)O2)OC1=O` (some centres not stated), the TGI in the experiment with MALME-3M melanoma, in the experiment on SK-MEL-5 melanoma, in the experiment on UO-31 renal, in the experiment with U251 CNS, in the experiment on COLO 205 colon and in the experiment on IGROV1 ovarian was greater than 100 µM in each case. The TGI in the experiment on LOX IMVI melanoma, with SK-MEL-2 melanoma and in the experiment on SK-OV-3 ovarian was greater than 100 µM each time.

Regarding `CN(C)C(=S)/N=c1\ssc(=Nc2ccccc2)n1-c1ccccc1`, the TGI was greater than 100 µM in the experiment on MALME-3M melanoma; greater than 100 µM with UO-31 renal; 70.7 µM in the experiment with U251 CNS; greater than 100 µM in the experiment with IGROV1 ovarian; greater than 100 µM in the experiment with UACC-257 melanoma; 87 µM in the experiment with LOX IMVI melanoma. For the same compound, the TGI in the experiment with SK-MEL-2 melanoma was greater than 100 µM; in the experiment with SK-OV-3 ovarian, 80.5 µM.

Consider `c1ccc(N2CCN(CCN3CCc4c([nH]c5ccccc45)C3c3cccnc3)CC2)cc1` (configuration not stated), for which the TGI was greater than 100 µM in the experiment with SK-MEL-5 melanoma; greater than 100 µM with UO-31 renal; greater than 100 µM in the experiment on U251 CNS; greater than 100 µM with IGROV1 ovarian; greater than 100 µM with UACC-257 melanoma; 95.2 µM in the experiment with SK-OV-3 ovarian.

Take `Nc1ccc(C(=O)N/C(=C\c2ccc3c(c2)OCO3)c2nc3ccccc3s2)cc1`: the TGI in the experiment with SK-MEL-5 melanoma stood at 29.2 µM; in the experiment with UO-31 renal, 29 µM; in the experiment with U251 CNS it was 26.4 µM; in the experiment with COLO 205 colon it was 34.9 µM; in the experiment on IGROV1 ovarian, 31.7 µM; in the experiment with SK-MEL-2 melanoma, 28 µM. For the same compound, the TGI in the experiment with SK-OV-3 ovarian was 36.2 µM.

For the origin of these results see PubChem BioAssay (NCI).
